Patent US9212168B2 (priority 2011, dated 2015)

System: HCV genotype 1a replicon
Experiment: HCV genotype 1a replicon assay (NS3 protease activity readout)
Format: cell-based, hepatitis C virus
Details: for EC50: Hepatitis C virus, read-out: Genotype 1a, HCV genotype 1a replicon; for Genotype 1a: HCV genotype 1a replicon
Procedure: Assay 2: HCV Genotype 1a Replicon Assay
The HCV genotype 1a replicon cell line was obtained from Apath LLC (APC89; Huh7.5 cell background). This subgenomic replicon contains the N-terminus of the HCV core protein fused to the neomycin-resistance selectable marker. The EMCV IRES lies downstream and drives expression of the non-structural proteins NS3-NS5B. Compound potencies were determined using the NS3-specific protease activity in lysates as a measurement of compound inhibition of replicon levels.
Cells were grown at 37° C. in a 5% CO2 humidified incubator in DMEM (Invitrogen) with 10% FBS (HyClone), 1×NEAA (Invitrogen), 1× Pen-Strep (Invitrogen), and 850 μg/mL G418 (Invitrogen). On day 1 of the assay, cells were plated at 15,000 cells/well in black 96-well tissue culture plates (Costar) in 200 μL media lacking G418. Four hours later, once the cells had adhered, the media was removed and replaced with media (no G418) containing dose-responses of test compounds. Compounds were initially diluted in DMSO and then diluted another 200× in media to bring the final DMSO concentration down to 0.5%. The cells were incubated with test compounds for 48 or 72 hours. At the end of the incubation period, media and compound were removed from the plates.
To determine the NS3-specific protease activity in lysates, the cells were lysed at room temperature in 50 μL/well of 50 mM Hepes pH 7.5, 150 mM NaCl, 15% Glycerol, 0.15% Triton X-100, 10 mM DTT for 20 minutes with shaking. 50 μL of an NS3/4a protease-specific FRET substrate (Anaspec RET S1 Cat#22991) was then added to the wells at a final concentration of 15 μM. The plates were incubated at 37° C. for 20 minutes, which corresponds to a timepoint at which the protease activity is still in the linear phase. Protease activity was determined by measuring fluorescence (Excitation: 340 nm; Emission: 509 nm).
To analyze the data, the fluorescence was plotted vs. the compound concentration, and EC50 values were determined from a 4-parameter robust fit model using GraphPad Prism software.

| Structure (SMILES) | EC50 [nM] | Genotype 1a |
| --- | --- | --- |
| COC(=O)N[C@H](C(=O)N1C[C@@H](C)C[C@H]1c1nc(-c2ccc(-c3cc(Cl)c(NC(=O)c4ccc(N5CCN(C(=O)NN6CCS(=O)(=O)CC6)C[C@H]5C)nc4)cc3OC(F)(F)F)cc2)c[nH]1)C(C)C [Example 12-19] | < 0.1 |  |
| COC(=O)N[C@H](C(=O)N1C[C@@H](C)C[C@H]1c1nc(-c2ccc(-c3cc(Cl)c(NC(=O)c4ccc(N5C[C@H](C)N(C(=O)[C@H]6CCCN6S(C)(=O)=O)C[C@H]5C)nc4)cc3OC(F)(F)F)cc2)c[nH]1)C(C)C [Example 1-45] |  | D (D represents pEC50>10 (EC50<0.1 nM)) |
| COC[C@H]1C[C@@H](c2nc(-c3ccc(-c4cc(Cl)c(NC(=O)c5ccc(N6CCN(C(=O)C(C)(C)C)C[C@H]6C)nc5)cc4OC(F)(F)F)cc3)c[nH]2)N(C(=O)[C@@H](NC(=O)OC)C2CCOCC2)C1 [Example 5-15] | < 0.1 |  |
| COC(=O)N[C@H](C(=O)N1C[C@H](C)C[C@H]1c1nc(-c2ccc(-c3cc(Cl)c(C(=O)Nc4ccc(N5CCN(C(=O)C(C)(C)C)C[C@H]5C)nc4)cc3OC(F)(F)F)cc2)c[nH]1)C1CCOCC1 [24-5] |  | C (C represents pEC50 between and 9 and about 10, (EC50 between 1 nM and 0.1 nM)) |
| COC(=O)N[C@H](C(=O)N1C[C@@H](C)C[C@H]1c1nc(-c2ccc(-c3cc(Cl)c(NC(=O)c4ccc(N5CCN(C(=O)[C@H]6CCCN6C(=O)OC)C[C@H]5C)nc4)cc3OC(F)(F)F)cc2)c[nH]1)C(C)C [Example 1-37] |  | D (D represents pEC50>10 (EC50<0.1 nM)) |
| COC(=O)N[C@H](C(=O)N1C[C@@H](C)C[C@H]1c1nc(-c2ccc(-c3cc(F)c(NC(=O)c4ccc(N5CCN(C(=O)C6CC67CC7)C[C@H]5C)nc4)cc3OC(F)(F)F)cc2)c[nH]1)C(C)C (stereo partly shown) [Example 1-88] |  | D (D represents pEC50>10 (EC50<0.1 nM)) |
| COC(=O)N[C@H](C(=O)N1C[C@@H](C)C[C@H]1c1nc(-c2ccc(-c3cc(Cl)c(NC(=O)c4ccc(N5CCN(C(=O)c6c[nH]cn6)C[C@H]5C)nc4)cc3C(F)(F)F)cc2)c[nH]1)C(C)C [Example 1-32] |  | D (D represents pEC50>10 (EC50<0.1 nM)) |
| COC(=O)N[C@H](C(=O)N1C[C@@H](OC)C[C@H]1c1nc(-c2ccc(-c3cc(Cl)c(NC(=O)c4ccc(N5CCN(C(=O)C(C)(C)C)C[C@H]5C)nc4)cc3C(F)(F)F)cc2)c[nH]1)C1CCOCC1 [Example 19-16] |  | D (D represents pEC50>10 (EC50<0.1 nM)) |
| COC(=O)N[C@H](C(=O)N1C[C@@H](SC)C[C@H]1c1nc(-c2ccc(-c3ccc(C(=O)Nc4ccc(N5CCN(C(=O)C(C)(C)C)C[C@H]5C)nc4)cc3OC(F)(F)F)cc2)c[nH]1)C(C)C [Example 6-15] | 0.1 to 1 |  |
| COCC(=O)N1CCC[C@@]1(C)C(=O)N1CCN(c2ccc(NC(=O)c3ccc(-c4ccc(-c5c[nH]c([C@@H]6C[C@@H]7CCCC[C@@H]7N6C(=O)[C@@H](NC(=O)OC)C(C)C)n5)cc4)c(OC(F)(F)F)c3)cn2)[C@H](C)C1 [Example 6-13] | < 0.1 |  |
| COC(=O)N[C@@H](C(=O)N1C[C@@H](C)C[C@H]1c1nc(-c2ccc(-c3cc(Cl)c(NC(=O)c4ccc(N5CCN(C(=O)C(C)(C)CO)C[C@H]5C)nc4)cc3C(F)(F)F)cc2)c[nH]1)C1CCCCC1 [Example 19-5] |  | A (A represents a pEC50 value between 6 and 8 (EC50 between 1 μM and 10 nM)) |
| COC(=O)N[C@H](C(=O)N1C[C@@H](N(C)C)C[C@H]1c1nc(-c2ccc(-c3cc(Cl)c(NC(=O)c4ccc(N5CCN(C(=O)[C@H]6CC6(C)C)C[C@H]5C)nc4)cc3OC(F)(F)F)cc2)c(Cl)[nH]1)C(C)C [Example 2-8] |  | D (D represents pEC50>10 (EC50<0.1 nM)) |
| COC(=O)N[C@H](C(=O)N1C[C@@H](C)C[C@H]1c1nc(-c2ccc(-c3cc(Cl)c(NC(=O)c4ccc(N5CCN(C(=O)C(C)N(C)C)C[C@H]5C)nc4)cc3OC(F)(F)F)cc2)c[nH]1)C(C)C (stereo partly shown) [Example 12-23] | < 0.1 |  |
| CNC(=O)N1C[C@@H](C)N(c2ccc(C(=O)Nc3cc(OC(F)(F)F)c(-c4ccc(-c5c[nH]c([C@@H]6C[C@H](C)CN6C(=O)[C@@H](NC(=O)OC(C)C)C(C)C)n5)cc4)cc3Cl)cn2)C[C@@H]1C [Example 7-5] |  | B (B represents pEC50 between 8 and 9 (EC50 between 1 and 10 nM)) |
| COC(=O)N[C@H](C(=O)N1C[C@@H](C)C[C@H]1c1nc(-c2ccc(-c3cc(F)c(NC(=O)c4ccc(N5C[C@H](C)N(C(=O)c6c[nH]cn6)C[C@H]5C)nc4)cc3C(F)(F)F)cc2)c[nH]1)C(C)C [Example 1-21] |  | D (D represents pEC50>10 (EC50<0.1 nM)) |
| COC(=O)N[C@H](C(=O)N1CC2(C[C@H]1c1nc(-c3ccc(-c4ccc(NC(=O)c5ccc(N6CCN(C(=O)[C@]7(C)CCCN7C(=O)[C@@H](NC(=O)OC)C(C)C)C[C@H]6C)nc5)cc4OC(F)(F)F)cc3)c[nH]1)OCCO2)C(C)C [Example 5-1] | < 0.1 |  |
| [2H]C([2H])([2H])C1(C([2H])([2H])[2H])CC1C(=O)N1CCN(c2ccc(C(=O)Nc3cc(Cl)c(-c4ccc(-c5c[nH]c([C@@H]6C[C@H](C)CN6C(=O)[C@@H](NC(=O)OC)C(C)C)n5)cc4)cc3F)cn2)[C@H](C)C1 (stereo partly shown) [Example 1-100] |  | D (D represents pEC50>10 (EC50<0.1 nM)) |
| COC(=O)N[C@H](C(=O)N1C[C@@H](C)C[C@H]1c1nc(-c2ccc(-c3cc(Cl)c(NC(=O)c4ccc(N5CCN(C(=O)C(C)(C)N(C)C)C[C@H]5C)nc4)cc3OC(F)(F)F)cc2)c[nH]1)C(C)C [Example 12-20] | < 0.1 |  |
| COC(=O)N[C@H](C(=O)N1C[C@@H](C)C[C@H]1c1nc(-c2ccc(-c3cc(Cl)c(NC(=O)c4ccc(N5CCN(C(=O)C6CNC6)C[C@H]5C)nc4)cc3OC(F)(F)F)cc2)c[nH]1)C(C)C [Example 12-51] | 0.1 to 1 |  |
| COC(=O)N[C@H](C(=O)N1C[C@@H](C)C[C@H]1c1nc(-c2ccc(-c3cc(Cl)c(NC(=O)c4ccc(N5CCN(C(=O)[C@H]6CCCN6C(=O)C(C)C)C[C@H]5C)nc4)cc3OC(F)(F)F)cc2)c[nH]1)C(C)C [Example 1-49] |  | D (D represents pEC50>10 (EC50<0.1 nM)) |
| COC(=O)N[C@H](C(=O)N1C[C@@H](OC)C[C@H]1c1nc(-c2ccc(-c3cc(Cl)c(NC(=O)c4ccc(N5C[C@H](C)N(C(=O)C6CC6)C[C@H]5C)nc4)cc3OC(F)(F)F)cc2)c[nH]1)C1CCOCC1 [Example 28-10] |  | D (D represents pEC50>10 (EC50<0.1 nM)) |
| COC(=O)N[C@H](C(=O)N1C[C@@H](C)C[C@H]1c1nc(-c2ccc(-c3cc(Cl)c(NC(=O)c4ccc(N5CCN(C(=O)C6CC6)C[C@H]5C)nc4)cc3OC(F)(F)F)cc2)c[nH]1)C(C)C [Example 1-42] |  | D (D represents pEC50>10 (EC50<0.1 nM)) |
| COC(=O)N[C@H](C(=O)N1C[C@@H](C)C[C@H]1c1nc(-c2ccc(-c3ccc(C(=O)Nc4ccc(N5C[C@H](C)N(C(=O)[C@@H](C)NC(=O)C6CC6)C[C@H]5C)nc4)cc3OC(F)(F)F)cc2)c[nH]1)C(C)C [Example 4-40] |  | D (D represents pEC50>10 (EC50<0.1 nM)) |
| COC(=O)N[C@H](C(=O)N1CC(C)(C)C[C@H]1c1nc(-c2ccc(-c3cc(F)c(NC(=O)c4ccc(N5CCN(C(=O)[C@]6(C)CCCN6C(=O)[C@@H](NC(=O)OC)C(C)C)C[C@H]5C)nc4)cc3C(F)(F)F)cc2)c[nH]1)C(C)C [Example 3-2] |  | D (D represents pEC50>10 (EC50<0.1 nM)) |
| CCC(=O)N1CCN(c2ccc(C(=O)Nc3cc(OC(F)(F)F)c(-c4ccc(-c5c[nH]c([C@@H]6C[C@H](C)CN6C(=O)[C@@H](NC(=O)OC)C(C)C)n5)cc4)cc3Cl)cn2)[C@H](C)C1 [Example 1-73] |  | D (D represents pEC50>10 (EC50<0.1 nM)) |
